Test systems include A498 renal; CAKI-1 renal; EKVX NSCLC; K-562 leukemia; MOLT-4 leukemia; NCI-H522 lung; OVCAR-4 ovarian; OVCAR-5 ovarian; SK-OV-3 ovarian; TK-10 renal.
Holding throughout (test): NCI anticancer screen, dose series, 48 h

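Following 48 hours of exposure in 96-well plates, responses at five concentrations were used to interpolate endpoints linearly. Abbreviation: GI50, concentration required for 50% inhibition of growth. At the TGI there is no net growth.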

For `C[N+]1=c2c3cccc4cccc(c(=O)n2CC1)c43`, the TGI in the test on A498 renal was 30.9 µM; with CAKI-1 renal it was more than 100 µM; in the test on EKVX NSCLC, 87.5 µM; in the test with K-562 leukemia, 47.7 µM; with MOLT-4 leukemia, 10.6 µM; with NCI-H522 lung, 24.4 µM. In addition, the TGI with OVCAR-4 ovarian came to 43.9 µM; with OVCAR-5 ovarian it was 33.5 µM; in the test with SK-OV-3 ovarian it was 93.8 µM; in the test with TK-10 renal, 38.8 µM.
For `O=C(CCN1CCCC1)Nc1ccc2c(NCc3ccccc3)c3ccccc3nc2c1`, the GI50 in the test on A498 renal was 0.406 µM; with CAKI-1 renal, 1.53 µM; in the test with EKVX NSCLC, 0.448 µM; in the test on K-562 leukemia, 0.385 µM; in the test on MOLT-4 leukemia it was 0.364 µM; with NCI-H522 lung, 0.298 µM. The GI50 in the test on OVCAR-4 ovarian is 0.381 µM; with OVCAR-5 ovarian it was 0.424 µM; in the test on SK-OV-3 ovarian it was 0.43 µM; with TK-10 renal, 0.802 µM. The TGI amounted to 1.9 µM with A498 renal; 6.18 µM with CAKI-1 renal; 2.34 µM in the test on EKVX NSCLC; 1.41 µM with K-562 leukemia; 2.03 µM in the test with MOLT-4 leukemia; 1.34 µM with NCI-H522 lung. The TGI in the test on OVCAR-4 ovarian stood at 1.63 µM; in the test with OVCAR-5 ovarian it was 2.06 µM; in the test on SK-OV-3 ovarian, 2.56 µM; in the test on TK-10 renal it was 3.5 µM.
In the case of `CCOc1ccc2c(-c3ccnc(Nc4cc(OC)cc(C(F)(F)F)c4)n3)cnn2n1`, the GI50 in the test on A498 renal was more than 25 µM; with CAKI-1 renal, more than 10.3 µM; in the test with EKVX NSCLC, more than 25 µM; with K-562 leukemia, 1.97 µM; in the test with MOLT-4 leukemia it was more than 25 µM; in the test on NCI-H522 lung, 1.85 µM. The GI50 was more than 15.8 µM with OVCAR-4 ovarian, more than 25 µM in the test with OVCAR-5 ovarian, more than 25 µM in the test with SK-OV-3 ovarian and more than 16.3 µM in the test on TK-10 renal. Further, the TGI is more than 25 µM in the test with A498 renal; more than 25 µM with CAKI-1 renal; more than 25 µM with EKVX NSCLC; more than 25 µM in the test on K-562 leukemia; more than 25 µM with MOLT-4 leukemia; more than 10.9 µM in the test with NCI-H522 lung. Also, the TGI with OVCAR-4 ovarian, in the test with OVCAR-5 ovarian, with SK-OV-3 ovarian and in the test on TK-10 renal was more than 25 µM throughout.
Regarding `NC(=N\N=C/c1ccc(O)cc1)/C(N)=N\N=C/c1ccc(O)cc1`, the GI50 with A498 renal was more than 100 µM; with CAKI-1 renal, 2.06 µM; in the test on EKVX NSCLC, more than 87.9 µM; in the test on K-562 leukemia, 0.782 µM; with MOLT-4 leukemia it was 0.623 µM; in the test on NCI-H522 lung it was 0.52 µM. Also, the GI50 was more than 90.1 µM in the test on OVCAR-4 ovarian, more than 100 µM in the test on OVCAR-5 ovarian, 44.8 µM in the test with SK-OV-3 ovarian and more than 100 µM in the test on TK-10 renal. Also, the TGI with A498 renal, in the test with CAKI-1 renal, in the test with EKVX NSCLC, in the test on K-562 leukemia, in the test on MOLT-4 leukemia and in the test on NCI-H522 lung was more than 100 µM in each case. Moreover, the TGI in the test with OVCAR-4 ovarian, in the test on OVCAR-5 ovarian, in the test with SK-OV-3 ovarian and in the test with TK-10 renal was more than 100 µM each time.
For the compound `N#C/C(=C1\SCC(=O)N1c1ccccc1)c1nc2ccccc2[nH]1`, the TGI in the test on A498 renal, in the test on CAKI-1 renal, in the test on EKVX NSCLC, in the test on K-562 leukemia, in the test on MOLT-4 leukemia and with NCI-H522 lung was more than 100 µM each time. For the same compound, the TGI with OVCAR-4 ovarian, in the test on OVCAR-5 ovarian, in the test on SK-OV-3 ovarian and in the test with TK-10 renal was more than 100 µM in each case.
Regarding `CSC(=S)Nc1cc(C)cc(C)n1`, the TGI is more than 100 µM in the test on A498 renal; more than 31.6 µM in the test with CAKI-1 renal; more than 31.6 µM with EKVX NSCLC; more than 31.6 µM in the test with K-562 leukemia; more than 31.6 µM with MOLT-4 leukemia; more than 31.6 µM in the test with NCI-H522 lung. Further, the TGI with OVCAR-4 ovarian, in the test with OVCAR-5 ovarian, with SK-OV-3 ovarian and with TK-10 renal was more than 31.6 µM in each case.
Take `[2H]C([2H])([2H])NC(=O)c1nnc(NC(=O)C2CC2)cc1Nc1cccc(-c2ncn(C)n2)c1OC`: the GI50 in the test on A498 renal is 4.12 µM; in the test with CAKI-1 renal, 4.52 µM; in the test on EKVX NSCLC it was 81.4 µM; in the test with K-562 leukemia, 31.2 µM; with MOLT-4 leukemia, 0.934 µM; in the test on NCI-H522 lung it was 23 µM. Moreover, the GI50 with OVCAR-4 ovarian was 18.2 µM; in the test with OVCAR-5 ovarian it was more than 100 µM; with SK-OV-3 ovarian, 5.02 µM; in the test on TK-10 renal, 8.28 µM. Further, the TGI is more than 100 µM in the test with A498 renal; 71.6 µM in the test with CAKI-1 renal; more than 100 µM in the test with EKVX NSCLC; more than 100 µM in the test on K-562 leukemia; more than 100 µM in the test with MOLT-4 leukemia; more than 100 µM in the test with NCI-H522 lung. Moreover, the TGI was more than 100 µM with OVCAR-4 ovarian, more than 100 µM in the test with OVCAR-5 ovarian, 48.9 µM in the test on SK-OV-3 ovarian and more than 100 µM with TK-10 renal.
For the compound `N#Cc1nc(-c2ccc(F)cc2)oc1S(=O)(=O)N1CCCCC1`, the GI50 is 14.1 µM in the test with A498 renal; 1.66 µM with CAKI-1 renal; 1.86 µM with EKVX NSCLC; 2.43 µM in the test with K-562 leukemia; 2.22 µM with MOLT-4 leukemia; 0.927 µM with NCI-H522 lung. Also, the GI50 with OVCAR-4 ovarian is 2.19 µM; in the test on OVCAR-5 ovarian, 1.71 µM; in the test on SK-OV-3 ovarian, 24.3 µM; in the test on TK-10 renal, 1.78 µM. Besides, the TGI was 27.4 µM in the test on A498 renal; 3.03 µM in the test on CAKI-1 renal; 3.96 µM with EKVX NSCLC; more than 100 µM in the test on K-562 leukemia; 8.21 µM in the test on MOLT-4 leukemia; 3.1 µM with NCI-H522 lung. For the same compound, the TGI with OVCAR-4 ovarian was 4.76 µM; with OVCAR-5 ovarian, 3.32 µM; with SK-OV-3 ovarian, 91.2 µM; in the test with TK-10 renal it was 3.27 µM.
As to `CC(C)/C=C1\CCC(CN2CCOCC2)C1=O` (stereo not given), the TGI was more than 51.3 µM with A498 renal; 8.93 µM with CAKI-1 renal; 36.8 µM with EKVX NSCLC; 9.06 µM in the test with K-562 leukemia; 10.2 µM with MOLT-4 leukemia; 3.8 µM in the test on NCI-H522 lung. The TGI was 40 µM with OVCAR-4 ovarian, 39.4 µM in the test on OVCAR-5 ovarian, more than 100 µM in the test on SK-OV-3 ovarian and 29.7 µM in the test on TK-10 renal.
